Reference: patent publication US10287615B2, “Sophorolactone production” (ECOVER CO-ORDINATION CENTER N.V., priority 2011, dated 2019)

Tests used:
[1] = Static surface tension, pending drop method on a Krüss DSA100 tensiometer; format: physicochemical; conditions: water 71.26
Procedure: The lactone obtained in Example 10 was partially hydrolysed in degrees ranging from 0 to 2 equivalents using potassium hydroxide. Partial alkaline hydrolysis in this context implies that less than 3 mol KOH were added per mol lactone. As a consequence only part of the 3 ester bonds, i.e. the lactonic bond and the two acetyl ester bonds, was hydrolysed and a mixture of various sophorolipids formed.
The static surface tension of the partial hydrolysates obtained in the above described experiment was measured according to the pending drop method on a Krüss DSA100 tensiometer.

[2] = Storage stability of non-aqueous sophorolactone solution, HPLC-ELSD; format: physicochemical; conditions: for acid sophorolipid peak (hydrolysis of lactone), share of the total peak area: 10 g sophorolactone in 90 g ethyllactate or isoamyl lactate
Procedure: Both samples were split in 50 ml samples and stored at 4° C. and at 40° C. respectively. After 2 months of storage they were analyzed with HPLC-ELSD. The results are as illustrated by the chromatograms depicted in FIG. 7 and FIG. 8. After 2 months of storage at either 4° C., result depicted in FIG. 7, or 40° C., result depicted in FIG. 8, of this non-aqueous sophorolactone solution only a negligible hydrolysis of lactone material occurred as evidenced by an acid sophorolipid peak appearing at 30.5 min in the grey overlay graph. This peak represents less than 1% of the total peak area.

[3] = Stain removal efficacy in automatic dishwashing on soil plates; conditions: for average Rw (Y reflection value for washed): 1.4% surfactant in base formula, 50° C. eco; for soil removal: Rw minus Rs
Source text: A sophorolipid lactone sample obtained from the experiment described in Example 8 was centrifuged, spread out on Torck paper and allowed to air dry. The resulting solid was crushed with a coffee mill to a fine powder and dried further with compressed air to >98 wt %. This powder was compared as to its efficiency in automatic dishwashing versus a low foaming alkylpolyglucoside, in particular Simulsol AS48, available from Seppic SA, at equal active matter content. […] 20 gram of the base formula was dosed in a ZDF211 dishwasher. Program D 50° C. eco was run.
In the automatic dishwasher 7 types of soil plates (available from CFT, Vlaardingen, The Netherlands) mounted in a stainless steel holding frame were inserted.

For sophorolactone, which Surface tension ([1]; Conc. 10 ppm) is on record?
Its Surface tension is 71.00 mN/m.

What about the Surface tension ([1]; Conc. 50 ppm) of the same substance?
The Surface tension was 66.21 mN/m.

And the Surface tension ([1]; Conc. 100 ppm)?
The Surface tension was 63.02 mN/m.

And the Surface tension ([1]; Conc. 250 ppm)?
Its Surface tension is 47.67 mN/m.

And the Surface tension ([1]; Conc. 1000 ppm)?
Its Surface tension is 36.69 mN/m.

What about the Surface tension ([1]; Conc. 2000 ppm) of the same substance?
The Surface tension was 36.26 mN/m.

What about the Surface tension ([1]; Conc. 5000 ppm) of the same substance?
The Surface tension was 35.85 mN/m.

And the Surface tension ([1]; Conc. 10000 ppm)?
Its Surface tension is 35.33 mN/m.

And the Surface tension ([1]; Conc. 25000 ppm)?
Its Surface tension is 35.54 mN/m.

And the Surface tension ([1]; Conc. 50000 ppm)?
The Surface tension was 35.14 mN/m.

What about the “storage stability of non-aqueous solution (chromatogram overlay)” value ([2]; 2 months of storage at 40° C.) of the same substance?
The value was “storage stable”.

What about the “acid sophorolipid peak (hydrolysis of lactone), share of the total peak area” value ([2]; 2 months of storage at 4° C.) of the same substance?
The value was “less than 1%”.

What about the “acid sophorolipid peak (hydrolysis of lactone), share of the total peak area” value ([2]; 2 months of storage at 40° C.) of the same substance?
The value was “less than 1%”.

And the “storage stability of non-aqueous solution (chromatogram overlay)” value ([2]; storage at 4° C. for 2 months)?
The value was “storage stable”.

What about the “soil removal rates, overall comparison” value ([3]; automatic dishwashing, equal active matter content, alkaline pH of about 9.8) of the same substance?
Its value is “superior to Simulsol AS48”.

And the “average Rw (Y reflection value for washed)” value (“average Rw” below) ([3]; stain Cheese DM06)?
Its value is 41.9.

What about the soil removal ([3]; stain Cheese DM06) of the same substance?
The soil removal was 16.9.

What about the “average Rw” value ([3]; stain Chocolate DM75) of the same substance?
Its value is 24.9.

And the soil removal ([3]; stain Chocolate DM75)?
Its soil removal is 7.1.

And the “average Rw” value ([3]; stain Coffee DM81)?
The value was 77.5.

What about the soil removal ([3]; stain Coffee DM81) of the same substance?
The soil removal was 7.3.

What about the “average Rw” value ([3]; stain Egg yolk/milk DM31) of the same substance?
Its value is 52.0.

What about the soil removal ([3]; stain Egg yolk/milk DM31) of the same substance?
Its soil removal is 6.8.

What about the “average Rw” value ([3]; stain Mix starch DM77) of the same substance?
The value was 37.6.

And the soil removal ([3]; stain Mix starch DM77)?
The soil removal was 1.6.

And the “average Rw” value ([3]; stain Red wine DM51)?
Its value is 72.4.

And the soil removal ([3]; stain Red wine DM51)?
The soil removal was 17.1.

What about the “average Rw” value ([3]; stain Tea DM11) of the same substance?
The value was 75.7.

What about the soil removal ([3]; stain Tea DM11) of the same substance?
Its soil removal is 14.6.
